Values quoted from earlier work, collected in patent publication US20040248925A1, “Use of 4-phenyl substituted tetrahydroisoquinolines in the treatment of pain, migraine and urinary incontinence” (priority 2002, published 2004).

Settings: following treatment with imipramine; background statement

## CN(C)CCCN1c2ccccc2CCc2ccccc21 [imipramine, Imipramine]
  further patients in whom improvements can be seen: 15-20%
  patients in whom enuresis can be cured: over 50%
